# Results taken from PMC7226106, “Population Pharmacokinetics/Pharmacodynamics of Dabrafenib Plus Trametinib in Patients with BRAF-Mutated Metastatic Melanoma” (Cancers, 2020).
# Entries after “also recorded” stand apart in the source; their conditions may differ. Where two headings read alike, the source gives them in different places.
# Key:
# [1] = cited from earlier work
# [2] = design: method as in earlier work; conditions: preclinical data; cited from earlier work
# [3] = human, in vivo
# Method: (§6) Pharmacokinetic/pharmacodynamic analysis was conducted in BRAF^V600-mutated MM patients concomitantly treated with CombiDT. Regarding safety, the onset of DLT was considered as the clinical endpoint. A DLT was defined as any toxicity leading to dose reduction or temporary or permanent discontinuation of treatment. Regarding survival, the primary end point was progression free survival (PFS), the time from DAB and TRA treatment initiation to documented progression event (either clinical or radiological progression) or death from any cause. The secondary end-point was overall survival (OS), defined as the time from DAB and TRA treatment initiation to death from any cause. Radiographic evidence of progression was defined according to modified Response Evaluation Criteria in Solid Tumor (RECIST) v1.1 [41].
# (§7) Systemic exposures to DAB, OHD, and TRA (AUCDAB, AUCOHD, and AUCTRA, respectively) were calculated with classic equations, composite DAB and OHD AUC (AUCDAB+OHD) as previously explained and AUCOHD/DAB as the ratio of AUCOHD over AUCDAB. Univariate Fisher and Wilcoxon models were performed to identify which parameters could contribute to the onset of DLT. The following variables were tested: sex, age at treatment initiation, BMI, Eastern Cooperative Oncology Group Performance Status (ECOG PS: grade 0-1 vs ≥2), lactate dehydrogenase (LDH) level (<1.5N vs. ≥1.5N), AUCDAB, AUDOHD, AUCDAB+OHD, and AUCTRA.
# (§8) Multivariate Cox models according to a stepwise procedure were tested including all variables which were significant at 5% level in the univariate analyses. All the pharmacokinetic/pharmacodynamic analyses were performed using R program v3.6.1 with RStudio v1.1.383 (http://www.r-project.org).
# [4] = Population pharmacokinetic model of dabrafenib/hydroxy-dabrafenib (NONMEM) from plasma concentrations; assay type: in vivo, human (patients)
# Text: (§1) Seventy-three outpatients treated with DAB were enrolled from July 2015 to June 2017 in this observational multicentric study including three hospitals of the Assistance Publique—Hôpitaux de Paris (Cochin, Henri Mondor, and Avicenne). To be eligible, patients needed to meet the following criteria: a minimal age of 18 years, metastatic BRAF^V600-mutated solid tumors, treatment with DAB or CombiDT with at least one available DAB concentration measurement.
# (§2) DAB, dabrafenib-d9 (internal standard, IS), and TRA were purchased from LGC Standards (Molsheim, France). A custom synthesis was developed by Shanghai Medicilon (Shanghai, China) for OHD. The plasma concentrations were assayed using a validated high-performance liquid chromatography-tandem mass spectrometry (HPLC-MS/MS) (ATSQ Quantum Ultra®mass spectrometer, ThermoFisher, Les Ulis, France). Chromatographic separation was performed on Accucore® C18 (2.1 × 50 mm; 2.6 µm) analytical column (ThermoFisher Scientific, Les Ulis, France) associated with a guard column packed with the same bonded phase. Two hundred microliters (µL) aliquot of plasma (calibration standard, internal quality control or patient sample) was mixed with 20 µL of IS solution. Then 600 µL acetonitrile with 1% (v/v) formic acid was added. Samples were mixed and centrifuged, and the supernatant was evaporated and recovered with 200 µL of mobile phase: water/methanol (70:30%, v/v) with formic acid (0.1% v/v). Ten microliters of this mixture were injected into the HPLC-MS/MS system. The calibration standards ranged from 10 to 2000 ng/mL for DAB and OHD and from 5 to 50 ng/mL for TRA.
# (§3) Blood samples were collected in heparinized tubes during the treatment course, and the exact sample time was recorded. Plasma was separated by centrifugation (3000 rpm, 5 min), and stored at −20 °C until analysis.
# (§4) The non-linear mixed effects modeling program NONMEM v7.4.1 [34] with the Perl-Speaks NONMEM (PsN) Toolkit v4.8.0 [35] was used to build DAB/OHD and TRA models. Pirana v2.9.2 was used to assist in model development. […] Molar units were used for DAB/OHD analyses. Plasma samples with concentrations below the lower limit of quantification of the assay, non-reliable time information about blood sampling, or without dose information were excluded from the analysis.
# (§5) A stepwise strategy was used to identify the base models that best fitted DAB/OHD and TRA pharmacokinetic data. Different structural models such as one or two compartments, with linear absorption with or without lag time, were compared. DAB and OHD were modeled simultaneously testing multi-compartment models for both compounds. We hypothesized that DAB was cleared by complete oxidation to OHD, since it is not eliminated as unchanged molecule in urine and accounts for less than 22% in feces. Moreover, the first-order absorption rate constant (ka) of DAB was fixed to 1.8 h^−1 according to a previously published value to allow an adequate estimate of all pharmacokinetic parameters. Since DAB and TRA are administered orally, the pharmacokinetic parameters represent apparent values. Exponential errors following a log-normal distribution were assumed for the description of IIV of all the pharmacokinetic parameters. Inter-occasion variability (IOV) was tested in both DAB/OHD and TRA models to assess differences in individual parameters across study occasions. Additive, proportional, and mixed error models were compared to depict the residual unexplained variability (RUV) for both drugs and metabolite. The correlation between DAB and OHD data was tested using the L2 item in NONMEM. […]
# [5] = Model-estimated systemic exposure (AUC) in BRAF^V600-mutated MM patients treated with CombiDT; conditions: for AUC: human, plasma, oral
# Method: as §6, §7, §8
# [6] = test system: BRAF^V600-mutated metastatic melanoma; experiment: Survival (PFS, OS) and Cox exposure-survival analysis under CombiDT; assay type: in vivo, human (patients); conditions: for Risk of Death, HR (CI95%) for AUCM3 / Risk of Progression, HR (CI95%) for AUCM3: n = 30
# Method: as §6
# Multivariate Cox models according to a stepwise procedure were tested including all variables which were significant at 5% level in the univariate analyses.
# mutant BRAF = test system: mutant BRAF; design: method as in PMID 24958809; conditions: in vitro study; cited from earlier work
# [7] = Population pharmacokinetic model of trametinib (NONMEM) from plasma concentrations; assay type: in vivo, human (patients); conditions: for Vd/F: human, plasma, oral, read-out: V2/F, apparent central volume of distribution of TRA
# Text: as §1, §2, §3, §4, §5
# [8] = test system: BRAF^V600-mutated MM patients; experiment: Safety: adverse events and dose-limiting toxicities (DLT) under CombiDT; conditions: human, in vivo
# Method: Patients initiated DAB at the recommended daily dose of 150 mg twice daily. In patients treated with CombiDT, TRA was started at 2 mg once daily. Reduced starting doses were allowed at physician discretion based on comorbidities and patients’ general condition. All AE were graded using the National Cancer Institute Common Toxicity Criteria v4.0. DAB treatment was continued until disease progression, unacceptable toxicity, or unfitness to receive it.
# [9] = bootstrap median (n = 500 samples)
# [10] = multivariate Cox model with ECOG PS ≥2
smiles,measurement,setting,value
"CC(C)(CO)c1nc(-c2cccc(NS(=O)(=O)c3c(F)cccc3F)c2F)c(-c2ccnc(N)n2)s1 [OHD, hydroxy-dabrafenib]",mean OHD-to-DAB exposure ratio in plasma,[1],0.8
same,passage of the intact blood brain barrier,[2],lack of OHD diffusion into the brain
same,median AUCOHD/AUCDAB ratio,[3],0.80 (0.50–1.32)
same,difference in pharmacokinetics,"[4]; DAB monotherapy vs. combiDT (ΔOFV = −2.9, p > 0.05)",did not differ
same,"CLm/F, apparent clearance of OHD",[4]; base DAB/OHD model,22.8 L/h
same,"IIV CLm/F, interindividual variability (coefficient of variation)",[4]; base DAB/OHD model,26.8%
same,"IIV V3/F, interindividual variability (coefficient of variation)",[4]; base DAB/OHD model,84.0%
same,"RUV of OHD, residual unexplained variability (proportional)",[4]; base DAB/OHD model,53.1%
same,"CLm/F, apparent clearance of OHD",[4]; [9],22.9 L/h
same,"IIV CLm/F, interindividual variability (coefficient of variation)",[4]; [9],21.8%
same,"IIV V3/F, interindividual variability (coefficient of variation)",[4]; [9],82.0%
same,"RUV of OHD, residual unexplained variability (proportional)",[4]; [9],52.7%
same,"θage/(CLm/F), Age effect on CLm/F",[4]; [9],−0.543
same,difference in pharmacokinetics,"[4]; concomitant proton-pump inhibitor (PPI) intake (ΔOFV = −3.5, p > 0.05)",did not differ
same,"CLm/F, apparent clearance of OHD",[4]; final DAB/OHD model,23.2 L/h
same,"IIV CLm/F, interindividual variability (coefficient of variation)",[4]; final DAB/OHD model,24.0%
same,"IIV V3/F, interindividual variability (coefficient of variation)",[4]; final DAB/OHD model,47.5%
same,"RUV of OHD, residual unexplained variability (proportional)",[4]; final DAB/OHD model,53.1%
same,"θage/(CLm/F), Age effect on CLm/F","[4]; final DAB/OHD model, median age 61.2 years",−0.589
same,"base model variance of clearance explained by covariates (sex, age)",[4]; in vivo,20%
same,decrease in CLm/F,[4]; same age variation (20 to 90 years),51%
same,median AUCM3 (mean AUC during the first three months of treatment),[5]; 30 MM patients of the exposure-survival analysis,6082 ng·h/mL
same,"AUCM3,OHD/AUCM3,DAB ratio",[5]; patients experiencing cerebral progression,0.9 (0.5–1.3)
same,"AUC, median (range)","[5]; patients with DAB-related DLT (n = 12), last AUC before onset of DLT",7509.5 (4918–10300) ng∙h/mL
same,"AUCM3,OHD/AUCM3,DAB ratio",[5]; patients with extra-cerebral progression,0.8 (0.6–0.8)
same,"AUC, median (range)","[5]; patients without DAB-related DLT (n = 40), average AUC over treatment course",5812 (2459–10300) ng∙h/mL
same,"Risk of Death, HR (CI95%) for AUCM3,OHD",[6]; [10],1.61 (1.07–2.45)
same,"Risk of Death, HR (CI95%) for AUCM3,OHD/DAB ratio ≥ 1",[6]; [10],10.61 (2.34–48.15)
same,"Risk of Progression, HR (CI95%) for AUCM3,OHD",[6]; multivariate Cox model with cerebral metastases,1.29 (0.99–1.68)
same,"Risk of Progression, HR (CI95%) for AUCM3,OHD",[6]; multivariate Cox model with number of metastasis site ≥3,1.27 (0.97–1.68)
same,"Risk of Death, HR (CI95%) for AUCM3,OHD/AUCM3,DAB ratio ≥ 1 vs. < 1",[6]; univariate Cox model,4.11 (1.18–14.29)
same,"Risk of Progression, HR (CI95%) for AUCM3,OHD/AUCM3,DAB ratio ≥ 1 vs. < 1",[6]; univariate Cox model,1.66 (0.62–4.46)
same,"Risk of Death, HR (CI95%) for AUCM3",[6]; univariate Cox model,1.64 (1.09–2.48)
same,"Risk of Progression, HR (CI95%) for AUCM3",[6]; univariate Cox model,1.37 (1.02–1.83)
same,potency as an inhibitor of mutant BRAF compared to DAB,mutant BRAF,two-fold higher pharmacological potency; also recorded: twofold higher potency
CC(C)c1nc(-c2cccc(NS(=O)(=O)c3c(F)cccc3F)c2F)c(-c2ccnc(N)n2)s1 [desmethyl-dabrafenib],passage of the intact blood brain barrier,[2],may cross intact blood brain barrier
"CC(=O)Nc1cccc(-n2c(=O)n(C3CC3)c(=O)c3c(Nc4ccc(I)cc4F)n(C)c(=O)c(C)c32)c1 [TRA, trametinib]","CL/F, apparent clearance of TRA",[7]; [9],5.82 L/h
same,"IIV CL/F, interindividual variability (coefficient of variation)",[7]; [9],28.6%
same,"IIV Q, interindividual variability (coefficient of variation)",[7]; [9],80.1%
same,"RUV, residual unexplained variability (additive error)",[7]; [9],4.10 ng/mL
same,"Tlag, lag time",[7]; [9],0.728 h
same,"ka, first order absorption rate constant",[7]; [9],1.04 h⁻¹
same,"IIV CL/F, interindividual variability (coefficient of variation)",[7]; final TRA model,29.6%
same,"IIV Q, interindividual variability (coefficient of variation)",[7]; final TRA model,80.2%
same,"RUV, residual unexplained variability (additive error)",[7]; final TRA model,4.14 ng/mL
same,"Tlag, lag time",[7]; final TRA model,0.709 h
same,"ka, first order absorption rate constant",[7]; final TRA model,0.913 h⁻¹
same,"CL/F, apparent clearance of TRA","[7]; final TRA model, n = 60",5.83 L/h
same,Vd/F,[7]; [9],65.1 L
same,Vd/F,[7]; final TRA model,61.9 L
same,median time to onset of drug-related DLT,[8],104 days
same,patients in whom the drug dose was reduced,[8],23%
same,patients in whom the drug was discontinued permanently,[8],10%
same,patients who experienced a drug-related DLT,[8],33%
same,AUC,"[5]; AUCTRA, median (range), patients with TRA-related DLT (n = 17), last AUC before onset of DLT",268 ng·h/mL
same,AUC,"[5]; AUCTRA, median (range), patients without TRA-related DLT (n = 35), average AUC over treatment course",268 ng·h/mL
same,AUC,"[5]; median AUCM3 (mean AUC during the first three months of treatment), 30 MM patients of the exposure-survival analysis",292 ng·h/mL
same,"Risk of Death, HR (CI95%) for AUCM3",[6]; univariate Cox model,1.37 (0.94–1.98)
same,"Risk of Progression, HR (CI95%) for AUCM3",[6]; univariate Cox model,1.31 (0.93–1.83)
